# Tested on: MCH receptors
# Experiment: MCH receptor activity class (method not given)
# Details: class 1-3 by percent of control at 10^-7 M or IC50
row,Structure (SMILES),class
1,"CN(C)c1nc(N[C@H]2CC[C@@H](NC(=O)c3ccccc3)CC2)nc2c1CCCC2 [compound 529, N-(cis-4-{[4-(dimethylamino)-5,6,7,8-tetrahydroquinazolin-2-yl]amino}cyclohexyl)benzamide]",2 (Class 2: The value of percent of control at 10^−7 M was from 40% to 60% or the value of IC′50 was from 50 nM to 200 nM.)
2,CN(C)c1nc(N[C@H]2CC[C@@H](NC(=O)c3cc4ccccc4s3)CC2)nc2c1CCCC2 [compound 530],3 (Class 3 The value of percent of control at 10^−7 M was more than 60% or the value of IC50 was more than 200 nM.)
3,"CN(C)c1nc(N[C@H]2CC[C@@H](NC(=O)COCc3ccccc3)CC2)nc2c1CCCC2 [compound 531, 2-(benzyloxy)-N-(cis-4-{[4-(dimethylamino)-5,6,7,8-tetrahydroquinazolin-2-yl]amino}cyclohexyl)acetamide]",2 (Class 2: The value of percent of control at 10^−7 M was from 40% to 60% or the value of IC′50 was from 50 nM to 200 nM.)
4,CN(C)c1nc(N[C@H]2CC[C@@H](NC(=O)COc3ccc(Cl)cc3)CC2)nc2c1CCCC2 [compound 532],2 (Class 2: The value of percent of control at 10^−7 M was from 40% to 60% or the value of IC′50 was from 50 nM to 200 nM.)
5,CN(C)c1nc(N[C@H]2CC[C@@H](NC(=O)C3CCCCC3)CC2)nc2c1CCCC2 [compound 533],3 (Class 3 The value of percent of control at 10^−7 M was more than 60% or the value of IC50 was more than 200 nM.)
6,Cc1onc(-c2ccccc2Cl)c1C(=O)N[C@H]1CC[C@@H](Nc2nc3c(c(N(C)C)n2)CCCC3)CC1 [compound 534],2 (Class 2: The value of percent of control at 10^−7 M was from 40% to 60% or the value of IC′50 was from 50 nM to 200 nM.)
7,CN(C)c1nc(N[C@H]2CC[C@@H](NC(=O)C3(c4ccc(Cl)cc4)CCCC3)CC2)nc2c1CCCC2 [compound 535],2 (Class 2: The value of percent of control at 10^−7 M was from 40% to 60% or the value of IC′50 was from 50 nM to 200 nM.)
8,"Cc1onc(-c2c(F)cccc2Cl)c1C(=O)N[C@H]1CC[C@@H](Nc2nc3c(c(N(C)C)n2)CCCC3)CC1 [compound 536, 3-(2-chloro-6-fluorophenyl)-N-(cis-4-{[4-(dimethylamino)-5,6,7,8-tetrahydroquinazolin-2-yl]amino}cyclohexyl)-5-methylisoxazole-4-carboxamide]",1 (Class 1: The value of percent of control at 10^−7 M was less than 40% or the value of IC50 was less than 50 nM.)
9,CC(C)S(=O)(=O)c1csc(C(=O)N[C@H]2CC[C@@H](Nc3nc4c(c(N(C)C)n3)CCCC4)CC2)c1Cl [compound 537],3 (Class 3 The value of percent of control at 10^−7 M was more than 60% or the value of IC50 was more than 200 nM.)
10,CN(C)c1nc(N[C@H]2CC[C@@H](NC(=O)c3ccc([N+](=O)[O-])cc3Cl)CC2)nc2c1CCCC2 [compound 538],3 (Class 3 The value of percent of control at 10^−7 M was more than 60% or the value of IC50 was more than 200 nM.)
11,Cc1cc(C(=O)N[C@H]2CC[C@@H](Nc3nc4c(c(N(C)C)n3)CCCC4)CC2)n(C)n1 [compound 539],2 (Class 2: The value of percent of control at 10^−7 M was from 40% to 60% or the value of IC′50 was from 50 nM to 200 nM.)
12,COc1ccc(C(=O)N[C@H]2CC[C@@H](Nc3nc4c(c(N(C)C)n3)CCCC4)CC2)cc1OC [compound 540],3 (Class 3 The value of percent of control at 10^−7 M was more than 60% or the value of IC50 was more than 200 nM.)
13,CN(C)c1nc(N[C@H]2CC[C@@H](NC(=O)c3cccc(F)c3)CC2)nc2c1CCCC2 [compound 541],1 (Class 1: The value of percent of control at 10^−7 M was less than 40% or the value of IC50 was less than 50 nM.)
14,CN(C)c1nc(N[C@H]2CC[C@@H](NC(=O)c3ccc(F)c(C(F)(F)F)c3)CC2)nc2c1CCCC2 [compound 542],1 (Class 1: The value of percent of control at 10^−7 M was less than 40% or the value of IC50 was less than 50 nM.)
15,Cc1nn(-c2ccccc2)nc1C(=O)N[C@H]1CC[C@@H](Nc2nc3c(c(N(C)C)n2)CCCC3)CC1 [compound 543],2 (Class 2: The value of percent of control at 10^−7 M was from 40% to 60% or the value of IC′50 was from 50 nM to 200 nM.)
16,COc1ccc(Oc2ccc([N+](=O)[O-])cc2C(=O)N[C@H]2CC[C@@H](Nc3nc4c(c(N(C)C)n3)CCCC4)CC2)cc1 [compound 544],1 (Class 1: The value of percent of control at 10^−7 M was less than 40% or the value of IC50 was less than 50 nM.)
17,CN(C)c1nc(N[C@H]2CC[C@@H](NC(=O)c3cccc4ccccc34)CC2)nc2c1CCCC2 [compound 545],3 (Class 3 The value of percent of control at 10^−7 M was more than 60% or the value of IC50 was more than 200 nM.)
18,CN(C)c1nc(N[C@H]2CC[C@@H](NC(=O)c3ccc4ccccc4c3)CC2)nc2c1CCCC2 [compound 546],3 (Class 3 The value of percent of control at 10^−7 M was more than 60% or the value of IC50 was more than 200 nM.)
19,CN(C)c1nc(N[C@H]2CC[C@@H](NC(=O)c3ccc([N+](=O)[O-])o3)CC2)nc2c1CCCC2 [compound 547],1 (Class 1: The value of percent of control at 10^−7 M was less than 40% or the value of IC50 was less than 50 nM.)
20,CN(C)c1nc(N[C@H]2CC[C@@H](NC(=O)COc3ccccc3)CC2)nc2c1CCCC2 [compound 548],1 (Class 1: The value of percent of control at 10^−7 M was less than 40% or the value of IC50 was less than 50 nM.)

row,Structure (SMILES),class
1,CN(C)c1nc(N[C@H]2CC[C@@H](NC(=O)COc3ccccc3[N+](=O)[O-])CC2)nc2c1CCCC2 [compound 549],3 (Class 3 The value of percent of control at 10^−7 M was more than 60% or the value of IC50 was more than 200 nM.)
2,CN(C)c1nc(N[C@H]2CC[C@@H](NC(=O)c3cnc4ccccc4n3)CC2)nc2c1CCCC2 [compound 550],1 (Class 1: The value of percent of control at 10^−7 M was less than 40% or the value of IC50 was less than 50 nM.)
3,COc1cc(C(=O)N[C@H]2CC[C@@H](Nc3nc4c(c(N(C)C)n3)CCCC4)CC2)cc(OC)c1OC [compound 551],3 (Class 3 The value of percent of control at 10^−7 M was more than 60% or the value of IC50 was more than 200 nM.)
4,CN(C)c1nc(N[C@H]2CC[C@@H](NC(=O)c3cccc(C(F)(F)F)c3)CC2)nc2c1CCCC2 [compound 552],1 (Class 1: The value of percent of control at 10^−7 M was less than 40% or the value of IC50 was less than 50 nM.)
5,CN(C)c1nc(N[C@H]2CC[C@@H](NC(=O)c3ccc(C(F)(F)F)cc3)CC2)nc2c1CCCC2 [compound 553],3 (Class 3 The value of percent of control at 10^−7 M was more than 60% or the value of IC50 was more than 200 nM.)
6,CN(C)c1nc(N[C@H]2CC[C@@H](NC(=O)c3ccccc3OC(F)(F)F)CC2)nc2c1CCCC2 [compound 554],3 (Class 3 The value of percent of control at 10^−7 M was more than 60% or the value of IC50 was more than 200 nM.)
7,COc1cc(COC(=O)N[C@H]2CC[C@@H](Nc3nc4c(c(N(C)C)n3)CCCC4)CC2)c([N+](=O)[O-])cc1OC [compound 555],3 (Class 3 The value of percent of control at 10^−7 M was more than 60% or the value of IC50 was more than 200 nM.)
8,CN(C)c1nc(N[C@H]2CC[C@@H](NC(=O)CCCOc3ccccc3)CC2)nc2c1CCCC2 [compound 556],3 (Class 3 The value of percent of control at 10^−7 M was more than 60% or the value of IC50 was more than 200 nM.)
9,COc1ccc(Br)c(C(=O)N[C@H]2CC[C@@H](Nc3nc4c(c(N(C)C)n3)CCCC4)CC2)c1 [compound 557],3 (Class 3 The value of percent of control at 10^−7 M was more than 60% or the value of IC50 was more than 200 nM.)
10,CN(C)c1nc(N[C@H]2CC[C@@H](NC(=O)COc3c(F)c(F)c(F)c(F)c3F)CC2)nc2c1CCCC2 [compound 558],3 (Class 3 The value of percent of control at 10^−7 M was more than 60% or the value of IC50 was more than 200 nM.)
11,COc1ccc(CC(=O)N[C@H]2CC[C@@H](Nc3nc4c(c(N(C)C)n3)CCCC4)CC2)cc1OC [compound 559],3 (Class 3 The value of percent of control at 10^−7 M was more than 60% or the value of IC50 was more than 200 nM.)
12,CN(C)c1nc(N[C@H]2CC[C@@H](NC(=O)c3ccc(F)c(F)c3F)CC2)nc2c1CCCC2 [compound 560],3 (Class 3 The value of percent of control at 10^−7 M was more than 60% or the value of IC50 was more than 200 nM.)
13,CN(C)c1nc(N[C@H]2CC[C@@H](NC(=O)C3CCCC3)CC2)nc2c1CCCC2 [compound 561],3 (Class 3 The value of percent of control at 10^−7 M was more than 60% or the value of IC50 was more than 200 nM.)
14,CN(C)c1nc(N[C@H]2CC[C@@H](NC(=O)c3ccc(F)cc3F)CC2)nc2c1CCCC2 [compound 562],3 (Class 3 The value of percent of control at 10^−7 M was more than 60% or the value of IC50 was more than 200 nM.)
15,CN(C)c1nc(N[C@H]2CC[C@@H](NC(=O)CCc3ccccc3)CC2)nc2c1CCCC2 [compound 563],3 (Class 3 The value of percent of control at 10^−7 M was more than 60% or the value of IC50 was more than 200 nM.)
16,CN(C)c1nc(N[C@H]2CC[C@@H](NC(=O)c3cc(F)c(F)c(F)c3F)CC2)nc2c1CCCC2 [compound 564],3 (Class 3 The value of percent of control at 10^−7 M was more than 60% or the value of IC50 was more than 200 nM.)
17,CCOc1ccc2ccccc2c1C(=O)N[C@H]1CC[C@@H](Nc2nc3c(c(N(C)C)n2)CCCC3)CC1 [compound 565],3 (Class 3 The value of percent of control at 10^−7 M was more than 60% or the value of IC50 was more than 200 nM.)
18,CN(C)c1nc(N[C@H]2CC[C@@H](NC(=O)c3c(F)c(F)c(F)c(F)c3F)CC2)nc2c1CCCC2 [compound 566],3 (Class 3 The value of percent of control at 10^−7 M was more than 60% or the value of IC50 was more than 200 nM.)
19,CN(C)c1nc(N[C@H]2CC[C@@H](NC(=O)c3ccc(SC(F)(F)F)cc3)CC2)nc2c1CCCC2 [compound 567],3 (Class 3 The value of percent of control at 10^−7 M was more than 60% or the value of IC50 was more than 200 nM.)
20,CN(C)c1nc(N[C@H]2CC[C@@H](NC(=O)c3sc(Cl)c(Cl)c3Cl)CC2)nc2c1CCCC2 [compound 568],3 (Class 3 The value of percent of control at 10^−7 M was more than 60% or the value of IC50 was more than 200 nM.)

# — US20050197350A1, “Novel quinoline, tetrahydroquinazoline, and pyrimidine derivatives and methods of treatment related to the use thereof” (TAISHO PHARMACEUTICAL CO., LTD., priority 2003, published 2005)
